Source: patent US8999942B2, “Polyol modified aminoglycoside-lipid conjugates” (University of Manitoba, priority 2010, dated 2015)

How the values were obtained:
[1] = test system: Acinetobacter baumanni (CAN-ICU 63169); experiment: MIC, broth macrodilution (CLSI), A. baumannii; format: cell-based; conditions: A. baumannii CAN-ICU 63169
In short: (§1)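 Strains: ATCC references and CAN-ICU clinical isolates. Method: CLSI broth macrodilution. Output: minimum inhibitory concentration, μg/mL.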

[2] = test system: E. coli (Amikacin MIC 32) CAN-ICU 63074; experiment: MIC, broth macrodilution (CLSI), E. coli CAN-ICU 63074; format: cell-based
In short: as §1

[3] = test system: Pseudomonas aeruginosa ATCC 27853; experiment: MIC, broth macrodilution (CLSI), P. aeruginosa ATCC 27853; format: cell-based
In short: as §1

[4] = test system: Streptococcus pneumoniae ATCC 49619; experiment: MIC, broth macrodilution (CLSI), S. pneumoniae ATCC 49619; format: cell-based
In short: as §1

three strains of E. coli = experiment: MIC, three strains of E. coli; format: cell-based
Protocol: (§2) All compounds were tested against American Type Culture Collection (ATCC) reference strains as well as clinical isolates from the Canadian Intensive Care Unit (CAN-ICU) study (Zhanel, et al., 2008). […] Antibacterial activity against Gram-positive and Gram-negative microorganisms was performed via broth macrodilution tests using CLSI methodology (Clinical and Laboratory Standards Institute, 2006). The minimum inhibitory concentration (MIC) in μg/mL of the aminoglycoside-derived amphiphilic polycarbamates and polyethers were determined using established methods (Clinical and Laboratory Standards Institute, 2006) and are shown in Tables 1 and 2, respectively.

[5] = test system: S. aureus, MRSA, S. epidermidis and MRSE; experiment: MIC, S. aureus, MRSA, S. epidermidis and MRSE; format: cell-based, Staphylococcus aureus, Staphylococcus epidermidis
Protocol: as §2

E. coli ATCC 25922 = experiment: MIC, broth macrodilution (CLSI), E. coli ATCC 25922; format: cell-based
In short: as §1

[6] = test system: S. epidermidis ATCC 14990; experiment: MIC, broth macrodilution (CLSI), S. epidermidis; format: cell-based, Staphylococcus epidermidis; conditions: footnote ATCC 1490
In short: as §1

[7] = test system: methicillin-resistant Staphylococcus epidermidis (MRSE) CAN-ICU 61589; experiment: MIC, broth macrodilution (CLSI), MRSE; format: cell-based; conditions: methicillin-resistant S. epidermidis, footnote (ATCC 14990)
In short: as §1

S. aureus ATCC 29213 = experiment: MIC, broth macrodilution (CLSI), S. aureus ATCC 29213; format: cell-based, Staphylococcus aureus
In short: as §1

S. pneumoniae ATCC 13883 = experiment: MIC, broth macrodilution (CLSI), S. pneumoniae ATCC 13883; format: cell-based
In short: as §1

[8] = test system: P. aeruginosa (Gent-R) CAN-ICU 62308; experiment: MIC, broth macrodilution (CLSI), P. aeruginosa CAN-ICU 62308; format: cell-based, Pseudomonas aeruginosa
In short: as §1

[9] = test system: Stenotrophomonas maltophilia (CAN-ICU 62585); experiment: MIC, broth macrodilution (CLSI), S. maltophilia; format: cell-based; conditions: for Minimal Inhibitory Concentration (MIC): S. maltophilia, footnote CAN-ICU 62584
In short: as §1

[10] = test system: E. coli (Gentamicin-resistant) CAN-ICU 61714; experiment: MIC, broth macrodilution (CLSI), gentamicin-resistant E. coli; format: cell-based; conditions: footnote ATCC 6174 (gentamicin resistant)
In short: as §1

[11] = test system: methicillin-resistant Staphylococcus aureus (MRSA) ATCC 33592; experiment: MIC, broth macrodilution (CLSI), MRSA ATCC 33592; format: cell-based; conditions: for Minimal Inhibitory Concentration (MIC): MRSA, methicillin-resistant S. aureus ATCC 33592
In short: as §1

Gram-negative strains = experiment: Gram-negative antibacterial activity; format: cell-based; conditions: Gram-negatives E. coli and S. maltophilia
Protocol: as §2

[12] = test system: P. aeruginosa (two strains); experiment: MIC, P. aeruginosa two strains; format: cell-based, Pseudomonas aeruginosa
Protocol: as §2

Structure (SMILES): NCC1OC(OC2C(N)CC(N)C(OC(=O)Nc3ccccc3)C2OC2OC(COC(=O)Nc3ccccc3)C(OC3OC(CN)C(OC(=O)Nc4ccccc4)C(OC(=O)Nc4ccccc4)C3N)C2OC(=O)Nc2ccccc2)C(N)C(OC(=O)Nc2ccccc2)C1OC(=O)Nc1ccccc1.O=C(O)C(F)(F)F.O=C(O)C(F)(F)F.O=C(O)C(F)(F)F.O=C(O)C(F)(F)F.O=C(O)C(F)(F)F.O=C(O)C(F)(F)F (stereo not shown) [Compound 1]
- Minimal Inhibitory Concentration (MIC) [1]: 32 µg/mL
- Minimal Inhibitory Concentration (MIC) [2]: 16 µg/mL
- Minimal Inhibitory Concentration (MIC) [3]: 256 µg/mL
- Minimal Inhibitory Concentration (MIC) [4]: 16 µg/mL
- MIC fold reduced compared to Neomycin B sulfate (three strains of E. coli; Neomycin B susceptible E. coli): 2-8 fold
- MIC (three strains of E. coli; three strains of E. coli): 16 to 32 µg/mL
- MIC [5]: ≤ 1 µg/mL
- Minimal Inhibitory Concentration (MIC) (E. coli ATCC 25922): 32 µg/mL
- Minimal Inhibitory Concentration (MIC) [6]: 0.5 µg/mL
- Minimal Inhibitory Concentration (MIC) [7]: 0.5 µg/mL
- Minimal Inhibitory Concentration (MIC) (S. aureus ATCC 29213): 1 µg/mL
- Minimal Inhibitory Concentration (MIC) (S. pneumoniae ATCC 13883): 256 µg/mL
- Minimal Inhibitory Concentration (MIC) [8]: 128 µg/mL
- Minimal Inhibitory Concentration (MIC) [9]: 4 µg/mL
- MIC fold lower compared to amphiphilic di- and tetracationic lipopeptides (Serrano et al., 2009) ([9]; against S. maltophilia): 32-64 fold
- fold increased susceptibility over Neomycin B ([9]; against multidrug-resistant S. maltophilia): over 128 fold
- Minimal Inhibitory Concentration (MIC) [10]: 16 µg/mL
- Minimal Inhibitory Concentration (MIC) [11]: 1 µg/mL
- fold enhancement compared to unmodified Neomycin B ([11]; against MRSA): 256 fold

Structure (SMILES): CCCCCCNC(=O)OCC1OC(OC2C(NC(=O)C(CCN)OC(=O)NCCCCCC)CC(N)C(OC3OC(CN)C(OC(=O)NCCCCCC)C(OC(=O)NCCCCCC)C3OC(=O)NCCCCCC)C2OC(=O)NCCCCCC)C(OC(=O)NCCCCCC)C(N)C1OC(=O)NCCCCCC.O=C(O)C(F)(F)F.O=C(O)C(F)(F)F.O=C(O)C(F)(F)F.O=C(O)C(F)(F)F (stereo not shown) [Compound 9]
- fold improvement compared to 6 (Gram-negative strains): 8-32 fold
- Minimal Inhibitory Concentration (MIC) [1]: >128 µg/mL
- Minimal Inhibitory Concentration (MIC) [2]: 4 µg/mL
- Minimal Inhibitory Concentration (MIC) [3]: 64 µg/mL
- Minimal Inhibitory Concentration (MIC) [4]: 32 µg/mL
- Minimal Inhibitory Concentration (MIC) (E. coli ATCC 25922): 4 µg/mL
- Minimal Inhibitory Concentration (MIC) [6]: 4 µg/mL
- Minimal Inhibitory Concentration (MIC) [7]: 4 µg/mL
- Minimal Inhibitory Concentration (MIC) (S. aureus ATCC 29213): 4 µg/mL
- Minimal Inhibitory Concentration (MIC) (S. pneumoniae ATCC 13883): >128 µg/mL
- Minimal Inhibitory Concentration (MIC) [8]: 16 µg/mL
- Minimal Inhibitory Concentration (MIC) [9]: 16 µg/mL
- Minimal Inhibitory Concentration (MIC) [10]: 8 µg/mL
- Minimal Inhibitory Concentration (MIC) [11]: 4 µg/mL

Structure (SMILES): NCC1OC(OC2C(N)CC(N)C(OCc3ccccc3)C2OC2OC(COCc3ccccc3)C(OC3OC(CN)C(OCc4ccccc4)C(OCc4ccccc4)C3N)C2OCc2ccccc2)C(N)C(OCc2ccccc2)C1OCc1ccccc1.O=C(O)C(F)(F)F.O=C(O)C(F)(F)F.O=C(O)C(F)(F)F.O=C(O)C(F)(F)F.O=C(O)C(F)(F)F.O=C(O)C(F)(F)F (stereo not shown) [Compound 11]
- Minimal Inhibitory Concentration (MIC) [1]: 16 µg/mL
- Minimal Inhibitory Concentration (MIC) [2]: 4 µg/mL
- Minimal Inhibitory Concentration (MIC) [3]: 32 µg/mL
- MIC [12]: 32 to 64 µg/mL
- Minimal Inhibitory Concentration (MIC) [4]: 16 µg/mL
- MIC [5]: 2 to 4 µg/mL
- Minimal Inhibitory Concentration (MIC) (E. coli ATCC 25922): 8 µg/mL
- Minimal Inhibitory Concentration (MIC) [6]: 2 µg/mL
- Minimal Inhibitory Concentration (MIC) [7]: 2 µg/mL
- Minimal Inhibitory Concentration (MIC) (S. aureus ATCC 29213): 4 µg/mL
- Minimal Inhibitory Concentration (MIC) (S. pneumoniae ATCC 13883): 8 µg/mL
- Minimal Inhibitory Concentration (MIC) [8]: 64 µg/mL
- Minimal Inhibitory Concentration (MIC) [9]: 8 µg/mL
- fold decrease in activity compared to polycarbamate analog 1 ([9]; against S. maltophilia): 2 fold
- Minimal Inhibitory Concentration (MIC) [10]: 16 µg/mL
- Minimal Inhibitory Concentration (MIC) [11]: 4 µg/mL
